In patent publication US7612064B2, “Sulfopyrroles” (Takeda Pharmaceutical Company Limited, priority 2003, dated 2009):

Tests used:
[1] = Hoechst 33342 nuclear staining; type: cell-based; conditions: for Hoechst 33342 nuclear staining score, H460: H460 cells; for Hoechst 33342 nuclear staining score, HeLa: HeLa cells; for Hoechst 33342 nuclear staining score, Jily: Jily cells; for Hoechst 33342 nuclear staining score, Jurkat: Jurkat cells; for Hoechst 33342 nuclear staining score, MRC5: MRC5 cells; on Hoechst 33342 nuclear staining score, PBLs: key: 0: no activity; 1: weak activity comprising less than 50% of the cells; 2: strong activity comprising more than 50% of the cells;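 on all read-outs here: apoptotic nuclei scored 0 none 1 weak under 50% of cells 2 strong over 50% of cells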
In short: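 Cells were plated in 96 well tissue culture plates in 80 μl complete medium, with 3-5*10^3 cells per well for adherent lines and 8-10*10^3 for suspension lines. Adherent cells spread for 24 h before treatment, while suspension cells were treated right after seeding. Compounds were added in 20 μl complete medium containing max 5% DMSO.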

Jurkat = assay: MTS proliferation assay; type: cell-based, human; conditions: 72 h
In short: (§1)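 Compounds at final 10/3/1/0.3 μM (added in complete medium, ≤5% DMSO); 72 h, culture conditions; + MTS, 3 h; A492.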

HeLa = assay: MTS proliferation assay; type: cell-based, human; conditions: 72 h
In short: as §1

MRC5 = assay: MTS proliferation assay; type: cell-based; conditions: MRC5, 72 h
In short: as §1

Jily = assay: MTS proliferation assay; type: cell-based; conditions: 72 h
In short: as §1

Row | SMILES | Hoechst 33342 nuclear staining score, H460 ([1]; conc 0.1) | Hoechst 33342 nuclear staining score, H460 ([1]; conc 0.3) | Hoechst 33342 nuclear staining score, H460 ([1]; conc 1) | Hoechst 33342 nuclear staining score, H460 ([1]; conc 3) | Hoechst 33342 nuclear staining score, HeLa ([1]; conc 0.1) | Hoechst 33342 nuclear staining score, HeLa ([1]; conc 0.3) | Hoechst 33342 nuclear staining score, HeLa ([1]; conc 1) | Hoechst 33342 nuclear staining score, HeLa ([1]; conc 3) | Hoechst 33342 nuclear staining score, Jily ([1]; conc 0.1) | Hoechst 33342 nuclear staining score, Jily ([1]; conc 0.3) | Hoechst 33342 nuclear staining score, Jily ([1]; conc 1) | Hoechst 33342 nuclear staining score, Jily ([1]; conc 3) | Hoechst 33342 nuclear staining score, Jurkat ([1]; conc 0.1) | Hoechst 33342 nuclear staining score, Jurkat ([1]; conc 0.3) | Hoechst 33342 nuclear staining score, Jurkat ([1]; conc 1) | Hoechst 33342 nuclear staining score, Jurkat ([1]; conc 3) | Hoechst 33342 nuclear staining score, MRC5 ([1]; conc 0.1) | Hoechst 33342 nuclear staining score, MRC5 ([1]; conc 0.3) | Hoechst 33342 nuclear staining score, MRC5 ([1]; conc 1) | Hoechst 33342 nuclear staining score, MRC5 ([1]; conc 3) | other results
1 | COc1cc(-c2cc(CNc3ccc(-c4nnn[nH]4)cc3)cn2S(=O)(=O)c2ccc(C)cc2)cc(OC)c1OC [Example 73] | 0 | 0 | 0 | 2 (strong activity comprising more than 50% of the cells) | 0 | 0 | 0 | 0 | 0 | 0 | 0 | 1 (weak activity comprising less than 50% of the cells) | 0 | 0 | 0 | 2 (strong activity comprising more than 50% of the cells) | 0 | 0 | 0 | 0 | Hoechst 33342 nuclear staining score, PBLs ([1]; conc 0.1): 0; Hoechst 33342 nuclear staining score, PBLs ([1]; conc 0.3): 0; Hoechst 33342 nuclear staining score, PBLs ([1]; conc 1): 0; Hoechst 33342 nuclear staining score, PBLs ([1]; conc 3): 0; IC50 (Jurkat): > 1000 nM; IC50 (HeLa): > 1000 nM; IC50 (MRC5): > 1000 nM; IC50 (Jily): > 1000 nM
2 | COc1ccc(S(=O)(=O)n2cc(-c3ccc(N)nc3)cc2-c2cc(OC)ccc2OC)cc1 [Example 101] | 0 | 2 (strong activity comprising more than 50% of the cells) | 2 (strong activity comprising more than 50% of the cells) | 2 (strong activity comprising more than 50% of the cells) | 0 | 2 (strong activity comprising more than 50% of the cells) | 2 (strong activity comprising more than 50% of the cells) | 2 (strong activity comprising more than 50% of the cells) | 0 | 2 (strong activity comprising more than 50% of the cells) | 2 (strong activity comprising more than 50% of the cells) | 2 (strong activity comprising more than 50% of the cells) | 0 | 2 (strong activity comprising more than 50% of the cells) | 2 (strong activity comprising more than 50% of the cells) | 2 (strong activity comprising more than 50% of the cells) | 0 | 2 (strong activity comprising more than 50% of the cells) | 2 (strong activity comprising more than 50% of the cells) | 2 (strong activity comprising more than 50% of the cells) | Hoechst 33342 nuclear staining score, PBLs ([1]; conc 0.1): 0; Hoechst 33342 nuclear staining score, PBLs ([1]; conc 0.3): 0; Hoechst 33342 nuclear staining score, PBLs ([1]; conc 1): 0; Hoechst 33342 nuclear staining score, PBLs ([1]; conc 3): 0; IC50 (Jurkat): < 200 nM; IC50 (HeLa): < 1000 nM; IC50 (MRC5): < 1000 nM; IC50 (Jily): < 200 nM
3 | COc1cc(-c2cc(-c3cccnc3)cn2S(=O)(=O)c2ccccc2Cl)cc(OC)c1OC [Example 84] | 0 | 0 | 0 | 0 | 0 | 0 | 0 | 0 | 0 | 0 | 0 | 0 | 0 | 0 | 0 | 0 | 0 | 0 | 0 | 0 | Hoechst 33342 nuclear staining score, PBLs ([1]; conc 0.1): 0; Hoechst 33342 nuclear staining score, PBLs ([1]; conc 0.3): 0; Hoechst 33342 nuclear staining score, PBLs ([1]; conc 1): 0; Hoechst 33342 nuclear staining score, PBLs ([1]; conc 3): 0; IC50 (Jurkat): > 1000 nM; IC50 (HeLa): > 1000 nM; IC50 (MRC5): > 1000 nM; IC50 (Jily): > 1000 nM
